Consider one compound from US20040223918A1, “Aerosolization of cromolyn sodium using a capillary aerosol generator” (Chrysalis Technologies Incorporated, priority 2003, published 2004).

A short description of data set [1]: Solubility of cromolyn sodium in ethanol and PG/EtOH mixtures. To be noted: Table 4 PG/EtOH mixtures, 0.25% Brij30 and 0.25% lecithin. It is filed as physicochemical. The source says: FIG. 7 is a graph illustrating the solubility of cromolyn sodium in various propylene glycol/ethanol (PG/EtOH) mixtures, with 0.25% Brij30 and 0.25% lecithin. […] When formulated with 0.25% w/v Brij 30 and 0.25% lecithin, cromolyn sodium suspension formulations remained visually stable over a period of one to two weeks. There was no significant change in the particle size distribution of the suspended particles up to three days of standing at ambient condition. The addition of PG was primarily to prevent capillary clogging. The amount of PG required in the formulation was dependent on the API concentration.

For data set [2] the following is noted: cited from earlier work.

The structures appear in SMILES notation.

In the case of `O=C(O)c1cc(=O)c2c(OCC(O)COc3cccc4oc(C(=O)O)cc(=O)c34)cccc2o1` [cromolyn sodium], in data set [1], the “solubility in PG/EtOH mixtures” value was “almost insoluble”. For the same compound, the solubility in ethanol entry in data set [2] is “virtually insoluble”.
